Measured values: ChEMBL document CHEMBL6092194, “Development of membrane-targeting chalcone derivatives as antibacterial agents against multidrug-resistant bacteria” (Eur J Med Chem, 2024)
Calls of active or inactive are those of the source. The calls are words filed in the database; no cut-off is given here.

Assays:
Escherichia coli [1] = test: Antibacterial activity against Escherichia coli ATCC25922 infected in sepsis mouse model assessed as log reduction in bacterial load in kidney at 5 mg/kg pre-infected with bacteria for 1 hrs followed by compound administration at 12 hrs interval for 2 days relative to control; assay type: functional; conditions: time 2 day
Cell membrane [2] = test: Disruption of cell membrane in Staphylococcus aureus ATCC43300 assessed as increase in intracellular ROS level by DCFH-DA staining based fluorescence analysis; assay type: subcellular; conditions: dose 1-8 µg/ml
Cell membrane [3] = test: Induction of inner membrane permeabilization in Staphylococcus aureus ATCC43300 assessed as increase in fluorescence intensity incubated for 20 mins by PI uptake assay; assay type: subcellular; conditions: dose 0.5-8 µg/ml
Cell membrane [4] = test: Induction of cytoplasmic membrane depolarization in Staphylococcus aureus ATCC43300 assessed as increase in fluorescence intensity at 8 microg/ml measured after 24 mins by DiSC3(5) dye-based fluorescence assay; conditions: dose 8.0 µg/ml
Escherichia coli [5] = test: Antibacterial activity against Escherichia coli ATCC25922 infected in sepsis mouse model assessed as log reduction in bacterial load in liver at 5 mg/kg pre-infected with bacteria for 1 hrs followed by compound administration at 12 hrs interval for 2 days relative to control; assay type: functional; conditions: time 2 day
Cell membrane [6] = test: Induction of outer membrane permeabilization in Escherichia coli ATCC25922 assessed as increase in fluorescence intensity incubated for 20 mins by NPN uptake assay; assay type: subcellular; conditions: dose 0.5-8 µg/ml
Staphylococcus aureus [7] = test: Antibacterial activity against Staphylococcus aureus ATCC43300 infected in sepsis mouse model assessed as log reduction in bacterial load in liver at 10 mg/kg pre-infected with bacteria for 1 hrs followed by compound administration at 12 hrs interval for 2 days relative to control; assay type: functional; conditions: time 2 day
Escherichia coli [8] = test: Antibacterial activity against Escherichia coli ATCC25922 infected in sepsis mouse model assessed as reduction in kidney damage at 5 to 10 mg/kg pre-infected with bacteria for 1 hrs followed by compound administration at 12 hrs interval for 2 days by H and E staining based analysis; assay type: functional, organism-based; conditions: dose 5-10 mg/kg, time 2.0 day
Escherichia coli [9] = test: Antibiofilm activity against Escherichia coli ATCC25922 assessed as inhibition of biofilm formation; assay type: functional, organism-based
Cell membrane [10] = test: Induction of cytoplasmic membrane depolarization in Staphylococcus aureus ATCC43300 assessed as increase in fluorescence intensity at 0.5 microg/ml measured after 24 mins by DiSC3(5) dye-based fluorescence assay; conditions: dose 0.5 µg/ml
Staphylococcus aureus [11] = test: Antibacterial activity against Staphylococcus aureus ATCC43300 infected in sepsis mouse model assessed as log reduction in bacterial load in kidney at 10 mg/kg pre-infected with bacteria for 1 hrs followed by compound administration at 12 hrs interval for 2 days relative to control; assay type: functional; conditions: time 2 day
Escherichia coli [12] = test: Antibacterial activity against Escherichia coli ATCC25922 measured after 20 passages; assay type: functional, organism-based
Staphylococcus aureus [13] = test: Antibiofilm activity against Staphylococcus aureus ATCC43300 assessed as inhibition of biofilm formation at 8 microg/ml relative to control; assay type: functional
Cell membrane [14] = test: Disruption of cell membrane in Escherichia coli ATCC25922 assessed as increase in intracellular ROS level by DCFH-DA staining based fluorescence analysis; conditions: dose 1-8 µg/ml
Cell membrane [15] = test: Disruption of cell membrane in Escherichia coli ATCC25922 assessed as increase in DNA leakage; conditions: dose 1-8 µg/ml
Staphylococcus aureus [16] = test: Antibacterial activity against Staphylococcus aureus ATCC43300 infected in sepsis mouse model assessed as log reduction in bacterial load in blood at 10 mg/kg pre-infected with bacteria for 1 hrs followed by compound administration at 12 hrs interval for 2 days relative to control; assay type: functional; conditions: time 2 day
[17] = Ratio of MBC for Staphylococcus aureus ATCC43300 measured after 6 hrs in presence of 50% plasma to MBC for Staphylococcus aureus ATCC43300 in Mueller Hinton Broth; assay type: functional
[18] = Selectivity ratio of MBC for Staphylococcus aureus ATCC43300 in presence of 50% plasma to MBC for Staphylococcus aureus ATCC43300 in Mueller Hinton Broth; assay type: functional
Staphylococcus aureus [19] = test: Antibacterial activity against Staphylococcus aureus ATCC43300 infected in sepsis mouse model assessed as log reduction in bacterial load in spleen at 10 mg/kg pre-infected with bacteria for 1 hrs followed by compound administration at 12 hrs interval for 2 days relative to control; assay type: functional; conditions: time 2 day
Escherichia coli [20] = test: Antibiofilm activity against Escherichia coli ATCC25922 assessed as inhibition of biofilm formation at 16 microg/ml relative to control; assay type: functional
Escherichia coli [21] = test: Disruption of preformed biofilm in Escherichia coli ATCC25922 assessed as eradication of biofilm at 32 microg/ml relative to control; assay type: functional; conditions: dose 32 µg/ml
[22] = Hemolytic activity in red blood cells (unknown origin); assay type: toxicity, cell-based, Erythrocyte
Staphylococcus aureus [23] = test: Antibacterial activity against Staphylococcus aureus ATCC43300 infected in sepsis mouse model assessed as reduction in kidney inflammation at 5 to 10 mg/kg pre-infected with bacteria for 1 hrs followed by compound administration at 12 hrs interval for 2 days by H and E staining based analysis; assay type: functional, organism-based; conditions: dose 5-10 mg/kg, time 2.0 day
Cell membrane [24] = test: Disruption of cell membrane in Staphylococcus aureus ATCC43300 assessed as appearance of blue fluorescence by DAPI staining based fluorescence microscopic analysis
Escherichia coli [25] = test: Bactericidal activity against Escherichia coli ATCC25922 in presence of 50% plasma; assay type: functional
Cell membrane [26] = test: Disruption of cell membrane in Staphylococcus aureus ATCC43300 assessed as increase in intracellular ROS level by measuring fold increase in fluorescence intensity at 8 microg/ml by DCFH-DA staining based fluorescence analysis relative to blank control group; conditions: dose 8.0 µg/ml
Staphylococcus aureus [27] = test: Antibacterial activity against penicillin-resistant Staphylococcus aureus ATCC43300 by broth microdilution assay; assay type: functional
Staphylococcus aureus [28] = test: Antibiofilm activity against Staphylococcus aureus ATCC43300 assessed as inhibition of biofilm formation; assay type: functional, organism-based
Escherichia coli [29] = test: Antibacterial activity against Escherichia coli ATCC25922 infected in sepsis mouse model assessed as reduction in kidney inflammation at 5 to 10 mg/kg pre-infected with bacteria for 1 hrs followed by compound administration at 12 hrs interval for 2 days by H and E staining based analysis; assay type: functional, organism-based; conditions: dose 5-10 mg/kg, time 2.0 day
Acinetobacter baumannii = test: Antibacterial activity against Acinetobacter baumannii ATCC19606 by broth microdilution assay; assay type: functional
Escherichia coli [30] = test: Induction of morphological changes in Escherichia coli ATCC25922 assessed as disruption of cell membrane by scanning electron microscopic analysis; assay type: functional, organism-based
[31] = Selectivity index, ratio of HC50 for hemolytic activity in red blood cells (unknown origin) to MIC for antibacterial activity against penicillin-susceptible Escherichia coli ATCC25922; assay type: toxicity, cell-based, RBC; conditions: read-out: Selectivity Index
Staphylococcus aureus [32] = test: Disruption of preformed biofilm in Staphylococcus aureus ATCC43300 assessed as eradication of biofilm at 32 microg/ml relative to control; assay type: functional; conditions: dose 32 µg/ml
[33] = Cytotoxicity against human L02 cells assessed as cell viability at 8 microg/ml by CCK8 assay relative to control; assay type: toxicity, cell-based; conditions: at 8 µg/mL, read-out: Activity
Cell membrane [34] = test: Induction of cytoplasmic membrane depolarization in Escherichia coli ATCC25922 assessed as increase in fluorescence intensity measured after 24 mins by DiSC3(5) dye-based fluorescence assay; conditions: dose 0.5-8 µg/ml
Escherichia coli [35] = test: Antibacterial activity against Escherichia coli ATCC25922 infected in sepsis mouse model assessed as reduction in liver inflammation at 5 to 10 mg/kg pre-infected with bacteria for 1 hrs followed by compound administration at 12 hrs interval for 2 days by H and E staining based analysis; assay type: functional, organism-based; conditions: dose 5-10 mg/kg, time 2.0 day

Which “log(activity)” value (Escherichia coli [1]) does the source give for `CCCCCCOc1cc[n+](CCCOc2ccc(/C=C/C(=O)c3ccc(OCCC[n+]4ccc(OCCCCCC)cc4)cc3)cc2)cc1.[Br-].[Br-]` here?
The value was 1.65.

And the Activity (Cell membrane [2])?
Its Activity is “Dose-dependent-effect”.

What about the Activity (Cell membrane [3]) of the same molecule?
Its Activity is “Dose-dependent-effect”.

And the Activity (Cell membrane [4])?
Its Activity is “Active; Fluorescence Intensity Surpassed The Melittin Group”.

And the “log(activity)” value (Escherichia coli [5])?
Its value is 2.52.

What about the Activity (Cell membrane [6]) of the same molecule?
Its Activity is “Dose-dependent-effect”.

And the “log(activity)” value (Staphylococcus aureus [7])?
The value was 2.13.

What about the Activity (Escherichia coli [8]) of the same molecule?
Its Activity is “Active”.

What about the Activity (Escherichia coli [9]) of the same molecule?
Its Activity is “Dose-dependent-effect”.

And the Activity (Cell membrane [10])?
Its Activity is “Not active; Fluorescence Intensity Remained Comparable To Negative Control”.

And the “log(activity)” value (Staphylococcus aureus [11])?
Its value is 1.76.

And the Activity (Escherichia coli [12])?
The Activity was “Active”.

And the inhibition at 8 µg/mL (Staphylococcus aureus [13])?
The inhibition at 8 µg/mL was 90.8%.

And the Activity (Cell membrane [14])?
The Activity was “Dose-dependent-effect”.

What about the Activity (Cell membrane [15]) of the same molecule?
Its Activity is “Dose-dependent-effect”.

What about the “log(activity)” value (Staphylococcus aureus [16]) of the same molecule?
The value was 1.61.

And the Ratio [17]?
Its Ratio is less than 4.

And the Ratio [18]?
The Ratio was less than 2.

What about the “log(activity)” value (Staphylococcus aureus [19]) of the same molecule?
Its value is 1.52.

What about the inhibition at 16 µg/mL (Escherichia coli [20]) of the same molecule?
The inhibition at 16 µg/mL was 50.9%.

And the Activity (Escherichia coli [21])?
The Activity was greater than 49.08%.

And the HC50 [22]?
Its HC50 is 329 µg/mL.

And the Activity (Staphylococcus aureus [23])?
The Activity was “Active”.

And the Activity (Cell membrane [24])?
The Activity was “Active”.

What about the MBC (Escherichia coli [25]) of the same molecule?
The MBC was 8 µg/mL.

And the fold change (FC) (Cell membrane [26])?
The fold change (FC) was 1.7.

What about the MIC (Staphylococcus aureus [27]) of the same molecule?
The MIC was 0.5 µg/mL.

What about the Activity (Staphylococcus aureus [28]) of the same molecule?
Its Activity is “Dose-dependent-effect”.

What about the Activity (Escherichia coli [29]) of the same molecule?
Its Activity is “Active”.

And the MIC (Acinetobacter baumannii)?
Its MIC is 16 µg/mL.

And the Activity (Escherichia coli [30])?
Its Activity is “Active”.

And the selectivity ratio [31]?
The selectivity ratio was 329.

And the Activity (Staphylococcus aureus [32])?
Its Activity is greater than 35.94%.

And the viability at 8 microg/ml [33]?
The viability at 8 microg/ml was 93.9%.

What about the Activity (Cell membrane [34]) of the same molecule?
Its Activity is “Dose-dependent-effect”.

What about the Activity (Escherichia coli [35]) of the same molecule?
Its Activity is “Active”.
